Measured values as given in patent US20060276534A1, “Methods of decreasing calcification” (Amgen Inc., priority 2005, published 2006).

Tests used:
[1] = test system: adenine-induced CKD rats; experiment: Aortic vascular calcification by bone mineral density (PIXImus) in adenine-induced CKD model; assay type: in vivo, rat; conditions: adenine diet rats; Compound B 3 mg/kg p.o. daily 21 days, compared to vehicle on the same diet
Source text: (§1) Male Sprague-Dawley rats (Charles River Laboratories) weighing 300-350 grams were used in these studies. All animals received standard lab chow (Harlan Teklad, Madison, Wis.) prior to the start of the studies. The standard lab chow was changed to a standard rodent lab chow that contained 0.75% adenine. Animals received food and water ad libitum. The animal protocol was approved by the Institutional Animal Care and Use Committee of Amgen Inc. (Thousand Oaks, Calif.).
(§2) Prior to placing animals on an adenine diet or administration of Compound B or vehicle baseline determininations of serum P, Ca, BUN, PTH and creatinine were performed. Blood was removed from the orbital sinus under while the rats were under anesthetisa (2% isoflurane in O2). […] For measurement of blood ionized calcium levels, blood was collected from the abdominal aorta under anesthesthia (2% isofluorane in O2), prior to sacrifice, with heparinized capillary tubes and analyzed using a Ciba-Corning 634 ISE Ca^++/pH Analyzer (Ciba-Corning Diagnostics Corp, Medfield, Mass.). […] PTH levels were quantified according to the vendor's instructions using a rat PTH(1-34) immunoradiometric assay kit (Immutopics, San Clemente, CA). BUN, creatinine, and phosphorus levels were determined using a blood chemistry analyzer (Olympus AU 400, Melville, N.Y.). […]

[2] = test system: adenine-induced CKD rats; experiment: PTH and serum chemistry profile in adenine-induced CKD model with vascular calcification; assay type: in vivo, rat; conditions: adenine diet rats, Compound B 3 mg/kg p.o. daily 21 days, vs vehicle
Source text: as §1
(§3) Animals were fed the adenine containing chow for 21 days, and prior to the start of the adenine diet animals were pre-bleed for baseline measurements of ionized calcium, PTH, BUN and creatinine and phosphorus levels (FIG. 9).
Prior to placing animals on an adenine diet or administration of Compound B or vehicle baseline determininations of serum P, Ca, BUN, PTH and creatinine were performed. Blood was removed from the orbital sinus under while the rats were under anesthetisa (2% isoflurane in O2). After the time 0 bleed, animals were placed on the adenine containing chow and were administered Compound B at 3 mg/kg p.o. or vehicle (12% captisol in water) daily for 21 days. At the end of the study (day 21) animals were sacrificed and the aorta and parathyroid glands were removed for histopathological analysis. Blood was removed for blood chemistries and PTH determinations. For measurement of blood ionized calcium levels, blood was collected from the abdominal aorta under anesthesthia (2% isofluorane in O2), prior to sacrifice, with heparinized capillary tubes and analyzed using a Ciba-Corning 634 ISE Ca^++/pH Analyzer (Ciba-Corning Diagnostics Corp, Medfield, Mass.). Separately, blood was collected for PTH, blood urea nitrogen (BUN), creatinine, and serum phosphorus levels into SST (clot activator) brand blood tubes (BD, Franklin Lakes, N.J.) and allowed to clot. Serum was removed and stored at −70° C. until assayed. PTH levels were quantified according to the vendor's instructions using a rat PTH(1-34) immunoradiometric assay kit (Immutopics, San Clemente, CA). BUN, creatinine, and phosphorus levels were determined using a blood chemistry analyzer (Olympus AU 400, Melville, N.Y.).

[3] = test system: 5/6 Nx rats; experiment: Ca and P content of thoracic aorta in 5/6 Nx rats given paricalcitol and/or Compound B (Example 3); assay type: in vivo, rat
Source text: Wistar rats (200-250g), fed a 0.6% Ca and 1.2% P diet, were 5/6 nephrectomized (5/6 Nx) or sham-operated (sham).

[4] = test system: adenine-induced CKD rats; experiment: Parathyroid hyperplasia (PCNA immunohistochemistry, parathyroid weight) in adenine-induced CKD model; assay type: in vivo, rat; conditions: adenine diet rats, vs vehicle
Source text: as §1, §3
as §2, with “performed.” for “performed. Blood was removed from the orbital sinus under while the rats were under anesthetisa (2% isoflurane in O2).”, “CA).” for “CA). BUN, creatinine, and phosphorus levels were determined using a blood chemistry analyzer (Olympus AU 400, Melville, N.Y.).”

[5] = test system: 5/6 Nx rats; experiment: Soft tissue mineralization by Von Kossa staining in 5/6 Nx rats (Example 4); assay type: in vivo, rat; conditions: 14 days
Source text: Wistar rats (200-250g), fed a 0.6% Ca and 1.2% P diet, were 5/6 nephrectomized (5/6 Nx).

[6] = test system: 5/6 Nx rats; experiment: Serum PTH, ionized Ca, P and creatinine in 5/6 Nx rats given paricalcitol and/or Compound B (Example 3); conditions: 14 days
[7] = 5/6 Nx rats, 14 days, compared to vehicle treated 5/6 Nx animals (Compound B also vs sham)
[8] = Compound B administered to paricalcitol treated 5/6 Nx rats, compared to 5/6 Nx rats treated with paricalcitol
[9] = thoracic aorta, 5/6Nx rats, 14 days, paricalcitol 240 ng/kg every 48 hr ip, Compound B 1.5 mg/kg every 48 hr sc
[10] = Compound B 1.5 mg/kg every 48 hr sc to calcitriol-treated 5/6 Nx rats
[11] = 5/6 Nx rats, compared to 5/6 Nx+vehicle
[12] = 5/6Nx rats, paricalcitol 240 ng/kg every 48 hr ip, Compound B 1.5 mg/kg every 48 hr sc
[13] = serum, 5/6Nx rats, paricalcitol 240 ng/kg every 48 hr ip, Compound B 1.5 mg/kg every 48 hr sc

With `COc1ccc(CNC(C)c2ccccc2)cc1-c1ccc(C(F)(F)F)cc1` (stereo not drawn) [Compound B, N-((6-(methyloxy)-4′-(trifluoromethyl)-1,1′-biphenyl-3-yl)methyl)-1-phenylethanamine] the “Reduction aortic bone mineral density” value [1] was 75%, the “Serum P levels” value [2] was “no significant (p>0.05) treatment effect” and the “Serum PTH levels” value ([2]; p<0.0001) was “significantly reduced”. For the same compound, the Creatinine levels ([2]; p<0.05) was “decrease”, the Total serum calcium ([2]; p=0.0001) was “significantly reduced” and the “Serum ionized calcium (iCa)” value ([2]; p=0.004) was “significantly reduced”. For the same compound, the “Blood urea nitrogen (BUN)” value ([2]; p>0.05) was “no significant treatment effect”, the “Aortic Ca content, change in words” value [3, 7] was “did not significantly change” and the “Aortic P content, change in words” value [3, 7] was “did not significantly change”. For the same compound, the “Aortic Ca content, change in words” value [3, 8] was “significantly (p<0.05) reduced”, the “Aortic P content, change in words” value [3, 8] was “significantly (p<0.05) reduced” and the “Aortic Ca” value [3, 9] was 2.6 ± 0.16 mg/g. The “Aortic P” value [3, 9] was 0.33 ± 0.05 mg/g, the “Number of PCNA-positive cells (parathyroid)” value ([4]; Compound B 3 mg/kg p.o. daily 3 weeks) was “significantly (p<0.01) reduced” and the Parathyroid weights ([4]; Compound B 3 mg/kg p.o. daily 21 days) was “significantly decreased”. The “Heart mineralization (Von Kossa staining)” value [5, 10] was “reduced”, the “Kidney mineralization (Von Kossa staining)” value [5, 10] was “reduced” and the “Lung mineralization (Von Kossa staining)” value [5, 10] was “reduced”. For the same compound, the “Kidney mineralization (Von Kossa staining)” value ([5]; Compound B 1.5 mg/kg every 48 hr sc to paricalcitol-treated 5/6 Nx rats) was “reduced”, the “Blood ionized calcium, change in words” value [6, 11] was “no changes” and the “Creatinine, change in words” value [6, 11] was “no changes”. For the same compound, the “Serum P levels, change in words” value [6, 11] was “no changes”, the “Serum PTH levels, change in words” value [6, 11] was “significantly (p<0.05) decreased” and the Creatinine [6, 12] was 0.98 ± 0.1 mg/dL. For the same compound, the “Ionized Ca” value [6, 12] was 0.93 ± 0.06 mM, the P [6, 13] was 9.5 ± 1.5 mg/dL and the PTH [6, 13] was 45 ± 1.8 pg/mL.
